In publication PMC12880750, “Mechanistic insights and in vivo HIV suppression by the BRD4-targeting small molecule ZL0580” (PLOS Pathogens, 2026):

Columns and labels:
[1] = test system: BRD4 BD2; set-up: method as in PMID 31329163; settings: in vitro binding affinity; cited from earlier work
[2] = test system: BRD4 BD1; set-up: method as in PMID 31329163; settings: in vitro binding affinity; cited from earlier work
[3] = test system: Tat recruitment to the HIV promoter in J-Lat cells (clone 10.6); set-up: method as in PMID 31329163; settings: cited from earlier work
[4] = target: T1, BRD4 BD1 WT (Homo sapiens, UniProt O60885); assay: Thermal shift assay (TSA/DSF), BD1 WT; assay type: binding; settings: eight increasing concentrations
T1 construct: Constructs used for mutagenesis, including wild-type BD1 (BD1 WT), BD1 with an E151A mutation (BD1 E151A), and wild-type BD2 (BD2 WT); GST (cleaved yes); made in house
Procedure: (§1) The melting temperatures shifts (ΔTm) were measured and the ΔTm curves as a function of compound-to-protein ratios were generated (Fig 2B–2C). […] As an additional control, the Tm of WT BD1 and E151A mutant in the absence of compound was also measured by TSA.
(§2) Plasmid construction and subsequent protein expression and purification of BRD4 proteins were performed using OverExpress C43(DE3) bacterial competent cells (Lucigen) as described in our previous studies. In brief, 12 L of bacterial cultures grown to OD600 between 0.6-0.8 were induced at 37°C for 4 h by 1 mM isopropyl […] (IPTG). Bacterial sonication supernatant in the lysis buffer (500 mM NaCl, 20 mM Tris-HCl pH 7.9 at 4°C, 20% glycerol, 1 mM EDTA, 0.2 mM DTT, and protease inhibitors) was incubated with glutathione (GSH) agarose beads (GOLDBIO, G-250–100) overnight with rotation at 4°C. The protein-bound GSH beads were washed three times with the lysis buffer and digested with human rhinovirus 3C protease (HRV-P3C; Thermal Fisher 88946) at 4°C for 4 h, according to the manufacture’s procedure, to remove GST tag from BD1/2 proteins. Untagged BRD4-BD1 and -BD2 were separated from HRV-P3C via passing through a HiTrap Q HP anion exchange chromatography column (GE Healthcare, GE17-1154-01) and eluted by a salt gradient from 100 mM to 1 M NaCl. […]

[5] = target: T2, BRD4 BD1 E151A (Homo sapiens, UniProt O60885, E151A); assay: Thermal shift assay (TSA/DSF), BD1 E151A mutant; assay type: binding; settings: eight increasing concentrations
T2 construct: Constructs used for mutagenesis, including wild-type BD1 (BD1 WT), BD1 with an E151A mutation (BD1 E151A), and wild-type BD2 (BD2 WT); GST (cleaved yes); made in house
Procedure: as §1, §2

[6] = Body weight / tolerability in HIV-infected Hu-mice; assay type: in vivo, CD34+ Hu-NSG mice (Hu-mice)
From the text: To assess general health of the mice and potential protective effects of the treatments, body weights of Hu-mice were closely monitored. […] There was a slight reduction in body weights of Hu-mice in the EV group following HIV infection. However, no statistically significant difference was detected as compared to the three treatment groups (Fig 6E).
Mice were 16-week-old at the initiation of the experiments. All mice received human CD34 + stem cells of a single donor and human immune cell reconstitution was confirmed for all mice. A total of 12 Hu-mice were initially included in the study with each tagged and assigned with a unique ID. At week 0, all Hu-mice were intravenously (IV) infected with HIV-1 JR-CSF at a single dose of 10ng HIV p24 equivalent virus per animal. Blood/plasma viral loads were monitored and quantified weekly by a single-step RT-qPCR until systemic HIV infection was established. […] At week 3, the remaining 11 Hu-mice were randomized into four groups for subsequent treatments: Empty Vehicle (EV) (n = 2), ART (n = 3), ZL0580 (n = 3), and ART + ZL0580 (n = 3). […] Plasma samples were collected from mice either weekly or biweekly for quantification of viral loads (RNA copies). Blood cells were also collected at weeks 7 and 13 for quantification of cell-associated HIV DNA in blood. Mouse weights were monitored after treatment.

[7] = test system: HIV-1 JR-CSF; assay: Cell-associated HIV DNA in blood cells of Hu-mice; assay type: in vivo, CD34+ Hu-NSG mice (Hu-mice); settings: qPCR, per 10^7 PB cells
From the text: To assess whether ZL0580 or ART affects HIV DNA levels, we quantified cell-associated HIV DNA in the peripheral blood of Hu-mice after treatments. Blood cells collected at weeks 7, 11 and 13 were subjected to DNA extraction and quantification of HIV DNA by qPCR. […] By week 13, HIV DNA levels also remained similar across all groups (Fig 7C).
Mice were 16-week-old at the initiation of the experiments. All mice received human CD34 + stem cells of a single donor and human immune cell reconstitution was confirmed for all mice. A total of 12 Hu-mice were initially included in the study with each tagged and assigned with a unique ID. […] Blood/plasma viral loads were monitored and quantified weekly by a single-step RT-qPCR until systemic HIV infection was established. […] Plasma samples were collected from mice either weekly or biweekly for quantification of viral loads (RNA copies). Blood cells were also collected at weeks 7 and 13 for quantification of cell-associated HIV DNA in blood. Mouse weights were monitored after treatment.
Quantification of cell-associated HIV DNA in blood cells was performed by qPCR as previously described with modifications. Blood cells were counted and subjected to DNA extraction using the Qiagen QIAamp DNA Blood Mini Kit (QIAGEN). qPCR primers and probe: Forward: 5′-[…]-3′, Reverse: 5′-[…]-3′, Probe: 5’-/5HEX/[…]/ZEN/GCC […]/3IABkFQ. […]

[8] = target: T3, BRD4 BD2 WT (Homo sapiens, UniProt O60885); assay: Thermal shift assay (TSA/DSF), BD2 WT; assay type: binding; settings: eight increasing concentrations
T3 construct: Constructs used for mutagenesis, including wild-type BD1 (BD1 WT), BD1 with an E151A mutation (BD1 E151A), and wild-type BD2 (BD2 WT); GST (cleaved yes); made in house
Procedure: as §1, §2

In the case of `O=C(Nc1ccc(C(F)(F)F)cc1)Nc1ccc(S(=O)(=O)N2CCC[C@H]2C(=O)Nc2ccccc2)cc1` [ZL0580], the IC50 [1] is listed as 1070 nM, the IC50 [2] is listed as 163 nM and the “Tat binding to the HIV promoter” value [3] is listed as “decreased”. For the same molecule, the “Effect on stability of WT BD1 (TSA)” value [4] was “dose-dependently increased the stability”, the “Effect on stability of BD1 E151A mutant (TSA)” value [5] was “almost no effect” and the “Tolerability in Hu-mice” value ([6]; daily intraperitoneal administration over the course of treatment) was “well tolerated”. For the same molecule, the “Body weights of Hu-mice” value ([6]; daily intraperitoneal administration, throughout the study) was “maintained stable body weights”, the “HIV DNA copies in peripheral blood cells at week 7, among groups incl. EV control” value [7] was “no significant differences” and the “Effect on stability of WT BD2 (TSA)” value [8] was “sparing BD2”.
